Literature values in patent US10576065B2, “Pharmaceutical composition containing rifaximin alpha and delta” (Sandoz AG, priority 2016, dated 2020).
Where two headings read alike, the source gives them in different places.

How the values were obtained:
[1] = parameters: AUC: concentration or dose not given beside the values; settings: dogs
[2] = human
[3] = film coated tablets, 400 mg (Blandizzi et al.), listed as Prior art alpha
[4] = film coated tablets, 400 mg (Blandizzi et al.)

Compound	AUC [1]	Cmax [1]	AUC ([2]; 200 mg) [ng·h/mL]	Cmax ([2]; 200 mg) [ng/mL]	AUC ([2]; 400 mg) [ng·h/mL]	Cmax ([2]; 400 mg) [ng/mL]	AUCt [2, 3] [ng·h/mL]	Cmax [2, 3] [ng/mL]	AUCt [2, 4] [ng·h/mL]	Cmax [2, 4] [ng/mL]
CO[C@H]1/C=C/O[C@@]2(C)Oc3c(C)c(O)c4c(O)c(c5c(nc6cc(C)ccn65)c4c3C2=O)NC(=O)/C(C)=C\C=C\[C@H](C)[C@H](O)[C@@H](C)[C@@H](O)[C@@H](C)[C@H](OC(C)=O)[C@@H]1C [Beta, rifaximin]	12 ng·h/mL	1.1 ng/mL	–	–	–	–	–	–	–	–
CO[C@H]1/C=C/O[C@@]2(C)Oc3c(C)c(O)c4c(O)c(c5c(nc6cc(C)ccn65)c4c3C2=O)NC(=O)/C(C)=C\C=C\[C@H](C)[C@H](O)[C@@H](C)[C@@H](O)[C@@H](C)[C@H](OC(C)=O)[C@@H]1C [Delta, rifaximin]	830 ng·h/mL	308.3 ng/mL	–	–	–	–	–	–	–	–
CO[C@H]1/C=C/O[C@@]2(C)Oc3c(C)c(O)c4c(O)c(c5c(nc6cc(C)ccn65)c4c3C2=O)NC(=O)/C(C)=C\C=C\[C@H](C)[C@H](O)[C@@H](C)[C@@H](O)[C@@H](C)[C@H](OC(C)=O)[C@@H]1C [Epsilon, rifaximin]	77 ng·h/mL	6.9 ng/mL	–	–	–	–	–	–	–	–
CO[C@H]1/C=C/O[C@@]2(C)Oc3c(C)c(O)c4c(O)c(c5c(nc6cc(C)ccn65)c4c3C2=O)NC(=O)/C(C)=C\C=C\[C@H](C)[C@H](O)[C@@H](C)[C@@H](O)[C@@H](C)[C@H](OC(C)=O)[C@@H]1C [amorphous, rifaximin]	–	–	16.13	3.70	68.80	15.01	–	–	68.80	15.01

Now from value to compound:

AUC [1]	Cmax [1]	AUC ([2]; 200 mg) [ng·h/mL]	Cmax ([2]; 200 mg) [ng/mL]	AUC ([2]; 400 mg) [ng·h/mL]	Cmax ([2]; 400 mg) [ng/mL]	AUCt [2, 3] [ng·h/mL]	Cmax [2, 3] [ng/mL]	AUCt [2, 4] [ng·h/mL]	Cmax [2, 4] [ng/mL]	Compound
17 ng·h/mL	2.6 ng/mL	5.77	1.59	13.03	3.54	13.03	3.54	–	–	CO[C@H]1/C=C/O[C@@]2(C)Oc3c(C)c(O)c4c(O)c(c5c(nc6cc(C)ccn65)c4c3C2=O)NC(=O)/C(C)=C\C=C\[C@H](C)[C@H](O)[C@@H](C)[C@@H](O)[C@@H](C)[C@H](OC(C)=O)[C@@H]1C [Alpha, rifaximin]
4,894 ng/ml × h	1,085.1 ng/ml	–	–	–	–	–	–	–	–	CO[C@H]1/C=C/O[C@@]2(C)Oc3c(C)c(O)c4c(O)c(c5c(nc6cc(C)ccn65)c4c3C2=O)NC(=O)/C(C)=C\C=C\[C@H](C)[C@H](O)[C@@H](C)[C@@H](O)[C@@H](C)[C@H](OC(C)=O)[C@@H]1C [Gamma, rifaximin]
